US12304890B2, “R-type pyridyloxycarboxylic acid, salt and ester derivative thereof, and preparation method therefor, and herbicidal composition and application thereof” (Qingdao Kingagroot Chemical Compound Co., Ltd., priority 2018, dated 2025)

Columns and labels:
Assay type in all cases: in vivo
Digitaria sanguinalis = assay: Post-emergence test experiment, Digitaria sanguinalis; settings: 1000 g a.i./ha, 3 weeks in greenhouse, fresh weight inhibition
Procedure, shortened: (§1)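 Pot-grown plants, sown 2 weeks earlier and at 2-3 leaves, received a foliar spray of compound in acetone/tween-80 with methyl oleate adjuvant. Effect was expressed as fresh weight inhibition rate after three further greenhouse weeks.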

Echinochloa crusgalli = assay: Post-emergence test experiment, Echinochloa crusgalli; settings: 1000 g a.i./ha, 3 weeks in greenhouse, fresh weight inhibition
Procedure, shortened: as §1

[1] = tested on: Monocotyledonous and dicotyledonous weed seeds and main crop seeds; assay: Post-emergence test experiment, other weeds and crops (Table 4, 1000 g a.i./ha); settings: 3 weeks in greenhouse, fresh weight inhibition
Procedure, shortened: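 Weed and crop seeds (wheat, corn, rice, soybean, cotton, oilseed, millet, sorghum) sown in soil pots in a greenhouse and sprayed at 2-3 leaf stage, 2 weeks after sowing. Compound in acetone/tween-80 with methyl oleate concentrate (1.5 L/ha) as synergist. Effect recorded as fresh-weight growth inhibition rate.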

| SMILES | Activity level (growth inhibition rate), Digitaria sanguinalis (Digitaria sanguinalis) | Activity level (growth inhibition rate), Echinochloa crusgalli (Echinochloa crusgalli) | Activity level (growth inhibition rate), Abutilon theophrasti Medic. [1] | Activity level (growth inhibition rate), Galium aparine [1] | Activity level (growth inhibition rate), Monochoria Vaginalis [1] |
| --- | --- | --- | --- | --- | --- |
| C[C@@H](Oc1nc(F)c(Cl)c(N)c1Cl)C(=O)OCc1ccnn1C [Compound 2-353] | 5 (Level 5: the growth inhibition rate is greater than 85%) | 5 (Level 5: the growth inhibition rate is greater than 85%) | 5 (Level 5: the growth inhibition rate is greater than 85%) | 5 (Level 5: the growth inhibition rate is greater than 85%) | 5 (Level 5: the growth inhibition rate is greater than 85%) |
| C[C@@H](Oc1nc(F)c(Cl)c(N)c1Cl)C(=O)OCc1cnn(C)c1 [Compound 2-354] | 5 (Level 5: the growth inhibition rate is greater than 85%) | 5 (Level 5: the growth inhibition rate is greater than 85%) | 5 (Level 5: the growth inhibition rate is greater than 85%) | 5 (Level 5: the growth inhibition rate is greater than 85%) | 5 (Level 5: the growth inhibition rate is greater than 85%) |
| Cc1ccccc1OC(=O)[C@@H](C)Oc1nc(F)c(Cl)c(N)c1Cl [Compound 2-355] | 5 (Level 5: the growth inhibition rate is greater than 85%) | 5 (Level 5: the growth inhibition rate is greater than 85%) | 5 (Level 5: the growth inhibition rate is greater than 85%) | 5 (Level 5: the growth inhibition rate is greater than 85%) | 5 (Level 5: the growth inhibition rate is greater than 85%) |
| CC(Oc1nc(F)c(Cl)c(N)c1Cl)C(=O)Sc1cccc(Cl)c1 (centres unmarked) [Compound 2-357] | 5 (Level 5: the growth inhibition rate is greater than 85%) | 5 (Level 5: the growth inhibition rate is greater than 85%) | 5 (Level 5: the growth inhibition rate is greater than 85%) | 5 (Level 5: the growth inhibition rate is greater than 85%) | 5 (Level 5: the growth inhibition rate is greater than 85%) |
| COc1ccc(SC(=O)C(C)Oc2nc(F)c(Cl)c(N)c2Cl)cc1 (centres unmarked) [Compound 2-358] | 5 (Level 5: the growth inhibition rate is greater than 85%) | 5 (Level 5: the growth inhibition rate is greater than 85%) | 5 (Level 5: the growth inhibition rate is greater than 85%) | 5 (Level 5: the growth inhibition rate is greater than 85%) | 5 (Level 5: the growth inhibition rate is greater than 85%) |
| CC(Oc1nc(F)c(Cl)c(N)c1Cl)C(=O)Sc1cccc(C(C)C)c1 (centres unmarked) [Compound 2-360] | 5 (Level 5: the growth inhibition rate is greater than 85%) | 5 (Level 5: the growth inhibition rate is greater than 85%) | 5 (Level 5: the growth inhibition rate is greater than 85%) | 5 (Level 5: the growth inhibition rate is greater than 85%) | 5 (Level 5: the growth inhibition rate is greater than 85%) |
| C[C@@H](Oc1nc(F)c(Cl)c(N)c1Cl)C(=O)Sc1ccncc1 [Compound 2-363] | 5 (Level 5: the growth inhibition rate is greater than 85%) | 5 (Level 5: the growth inhibition rate is greater than 85%) | 5 (Level 5: the growth inhibition rate is greater than 85%) | 5 (Level 5: the growth inhibition rate is greater than 85%) | 5 (Level 5: the growth inhibition rate is greater than 85%) |
| Cc1cn(C)nc1SC(=O)[C@@H](C)Oc1nc(F)c(Cl)c(N)c1Cl [Compound 2-365] | 5 (Level 5: the growth inhibition rate is greater than 85%) | 5 (Level 5: the growth inhibition rate is greater than 85%) | 5 (Level 5: the growth inhibition rate is greater than 85%) | 5 (Level 5: the growth inhibition rate is greater than 85%) | 5 (Level 5: the growth inhibition rate is greater than 85%) |
| C[C@@H](Oc1nc(F)c(Cl)c(N)c1Cl)C(=O)Sc1cccn1C [Compound 2-368] | 5 (Level 5: the growth inhibition rate is greater than 85%) | 5 (Level 5: the growth inhibition rate is greater than 85%) | 5 (Level 5: the growth inhibition rate is greater than 85%) | 5 (Level 5: the growth inhibition rate is greater than 85%) | 5 (Level 5: the growth inhibition rate is greater than 85%) |
| CCOCOC(=O)[C@@H](C)Oc1nc(F)c(Cl)c(N)c1Cl [Compound 2-370] | 5 (Level 5: the growth inhibition rate is greater than 85%) | 5 (Level 5: the growth inhibition rate is greater than 85%) | 5 (Level 5: the growth inhibition rate is greater than 85%) | 5 (Level 5: the growth inhibition rate is greater than 85%) | 5 (Level 5: the growth inhibition rate is greater than 85%) |
| CC(Oc1nc(F)c(Cl)c(N)c1Cl)C(=O)OC(N)C(=O)O (centres unmarked) [Compound 2-371] | 5 (Level 5: the growth inhibition rate is greater than 85%) | 5 (Level 5: the growth inhibition rate is greater than 85%) | 5 (Level 5: the growth inhibition rate is greater than 85%) | 5 (Level 5: the growth inhibition rate is greater than 85%) | 5 (Level 5: the growth inhibition rate is greater than 85%) |
| COC(=O)C(NC(=O)OC(C)(C)C)OC(=O)C(C)Oc1nc(F)c(Cl)c(N)c1Cl (centres unmarked) [Compound 2-372] | 5 (Level 5: the growth inhibition rate is greater than 85%) | 5 (Level 5: the growth inhibition rate is greater than 85%) | 5 (Level 5: the growth inhibition rate is greater than 85%) | 5 (Level 5: the growth inhibition rate is greater than 85%) | 5 (Level 5: the growth inhibition rate is greater than 85%) |
| C[C@@H](Oc1nc(F)c(Cl)c(N)c1Cl)C(=O)SC(N)=O [Compound 2-373] | 5 (Level 5: the growth inhibition rate is greater than 85%) | 5 (Level 5: the growth inhibition rate is greater than 85%) | 5 (Level 5: the growth inhibition rate is greater than 85%) | 5 (Level 5: the growth inhibition rate is greater than 85%) | 5 (Level 5: the growth inhibition rate is greater than 85%) |
| CCNc1c(Cl)c(F)nc(O[C@H](C)C(=O)SC)c1Cl [Compound 2-376] | 5 (Level 5: the growth inhibition rate is greater than 85%) | 5 (Level 5: the growth inhibition rate is greater than 85%) | 5 (Level 5: the growth inhibition rate is greater than 85%) | 5 (Level 5: the growth inhibition rate is greater than 85%) | 5 (Level 5: the growth inhibition rate is greater than 85%) |
| COC(=O)[C@@H](C)Oc1nc(F)c(Cl)c(NC(C)=O)c1Cl [Compound 2-377] | 5 (Level 5: the growth inhibition rate is greater than 85%) | 5 (Level 5: the growth inhibition rate is greater than 85%) | 5 (Level 5: the growth inhibition rate is greater than 85%) | 5 (Level 5: the growth inhibition rate is greater than 85%) | 5 (Level 5: the growth inhibition rate is greater than 85%) |
| COC(=O)[C@@H](C)Oc1nc(F)c(Cl)c(NCc2ccco2)c1Cl [Compound 2-378] | 5 (Level 5: the growth inhibition rate is greater than 85%) | 5 (Level 5: the growth inhibition rate is greater than 85%) | 5 (Level 5: the growth inhibition rate is greater than 85%) | 5 (Level 5: the growth inhibition rate is greater than 85%) | 5 (Level 5: the growth inhibition rate is greater than 85%) |
